What all share (format): cell-based
Experiment [1] concerns Caco-2. Description: Proliferation assay (crystal violet), Caco-2. The conditions noted are these: Homo sapiens, 96 h; Caco-2 cells; 4 days incubation; crystal violet staining; read-out: IC50 inhibition of proliferation, Caco2. As for the experimental part: (§1) Cultivated tumor cells (cells were ordered from ATCC, except HeLa-MaTu and HeLa-MaTu-ADR, which were ordered from EPO-GmbH, Berlin) were plated at a density of 1000 to 5000 cells/well, depending on the growth rate of the respective cell line, in a 96-well multititer plate in 200 μL of their respective growth medium supplemented 10% fetal calf serum. After 24 hours, the cells of one plate (zero-point plate) were stained with crystal violet (see below), while the medium of the other plates was replaced by fresh culture medium (200 μl), to which the test substances were added in various concentrations (0 μM, as well as in the range of 0.001-10 μM; the final concentration of the solvent dimethyl sulfoxide was 0.5%). The cells were incubated for 4 days in the presence of test substances. Cell proliferation was determined by staining the cells with crystal violet: the cells were fixed by adding 20 μl/measuring point of an 11% glutaric aldehyde solution for 15 minutes at room temperature. After three washing cycles of the fixed cells with water, the plates were dried at room temperature. The cells were stained by adding 100 μl/measuring point of a 0.1% crystal violet solution (pH 3.0). After three washing cycles of the stained cells with water, the plates were dried at room temperature. The dye was dissolved by adding 100 μl/measuring point of a 10% acetic acid solution. Absorbtion was determined by photometry at a wavelength of 595 nm. The change of cell number, in percent, was calculated by normalization of the measured values to the aborbtion values of the zero-point plate (=0%) and the absorbtion of the untreated (0 μm) cells (=100%). The IC50 values were determined by means of a 4 parameter fit.

Experiment [2] relates to B16F10. Description: Proliferation assay (crystal violet), B16F10. Particulars: Mus musculus, B16-F10, 96 h; B16F10 cells; 4 days incubation; crystal violet staining; read-out: IC50 inhibition of proliferation, B16F10. The protocol:
as §1

The test system of experiment [3] is HeLa. Description: Proliferation assay (crystal violet), HeLa. The conditions noted are these: Homo sapiens, HeLa, 96 h, HeLa cells; 4 days incubation; crystal violet staining; read-out: IC50 inhibition of proliferation, HeLa. The method in brief: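 Four-day compound exposure (0.001-10 μM, 0.5% DMSO final) began 24 h after seeding 1000-5000 cells/well in medium with 10% fetal calf serum. Cell number read by crystal violet absorbance at 595 nm, scaled between day-zero plate and untreated control; 4-parameter fit gave IC50.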

The subject of experiment [4] is NCI-H460. Description: Proliferation assay (crystal violet), NCI-H460. Particulars: Homo sapiens, 96 h; NCI-H460 cells; 4 days incubation; crystal violet staining; read-out: IC50 inhibition of proliferation, NCI-H460. As for the experimental part: as §1
Experiment [5] has as its system HeLa-MaTu-ADR. Description: Proliferation assay (crystal violet), HeLa-MaTu-ADR. The conditions noted are these: 96 h; HeLa-MaTu-ADR cells; 4 days incubation; crystal violet staining; read-out: IC50 inhibition of proliferation, HeLa-MaTu-ADR. As for the experimental part: as §1
For experiment [6], the system named is human cervical tumor cell line HeLa (ATCC CCL-2). Description: SAC-Formation - Paclitaxel-Induced Assay. Particulars: Homo sapiens, HeLa, 24 h, HeLa cells, paclitaxel 0.05 μM, test range 0.005 μM-20 μM, read-out: IC50 [mol/l] SAC-Formation - Paclitaxel-Induced Assay. An outline of the steps: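 Read-out is high-content imaging of anti-phospho-H3 Ser10 (mitosis) and Hoechst 33342 (DNA, cell number), with decreased mitotic fraction marking checkpoint breakthrough. Compounds (0.005–20 μM) and 0.05 μM paclitaxel co-added to overnight-plated HeLa for 24 h at 37° C; four-parameter Hill fit.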

The test system of experiment [7] is DU145. Description: Proliferation assay (crystal violet), DU145. The conditions noted are these: Homo sapiens, DU-145, 96 h; DU145 cells; 4 days incubation; crystal violet staining; read-out: IC50 inhibition of proliferation, DU145. The protocol: as §1

In the case of `Cc1nsc(Nc2cnc3ccccc3n2)c1C(=O)Nc1ccc(OC2CCN(CC(F)(F)F)CC2)nc1` [Example 21, 3-Methyl-5-(quinoxalin-2-ylamino)-N-(6-{[1-(2,2,2-trifluoroethyl)piperidin-4-yl]oxy}-pyridin-3-yl)-1,2-thiazole-4-carboxamide], the IC50 in experiment [1] was determined as 1400 nM; in experiment [2], 1400 nM; in experiment [3], 870 nM; in experiment [4], 750 nM; in experiment [5] it was 880 nM; in experiment [6], 150 nM. For the same molecule, in experiment [7], the IC50 worked out at 1900 nM.
On to `Cc1nsc(Nc2ccc(C#N)cn2)c1C(=O)Nc1ccc(OC2CCN(C(=O)OC(C)(C)C)CC2)nc1` [Example 27, tert-Butyl 4-({5-[({5-[(5-cyanopyridin-2-yl)amino]-3-methyl-1,2-thiazol-4-yl}-carbonyl)amino]pyridin-2-yl}oxy)piperidine-1-carboxylate], for which the IC50 turned out to be 410 nM in experiment [1]; 610 nM in experiment [2]; 630 nM in experiment [3]; 280 nM in experiment [4]; 250 nM in experiment [5]; 130 nM in experiment [6]. The IC50 in experiment [7] amounted to 680 nM.
Regarding `Cc1nsc(Nc2cnc(C(F)(F)F)cn2)c1C(=O)Nc1ccc(F)c(OCC2CCN(CC(F)F)C2)c1` (stereo not drawn) [Example 316, N-(3-{[1-(2,2-difluoroethyl)pyrrolidin-3-yl]methoxy}-4-fluorophenyl)-3-methyl-5-{[5-(trifluoromethyl)pyrazin-2-yl]amino}-1,2-thiazole-4-carboxamide], the values for the IC50 in experiment [3] and in experiment [6] were 430 nM and 45 nM, respectively.
The corresponding values for `Cc1nsc(Nc2cnc(C(F)(F)F)cn2)c1C(=O)Nc1ccc(F)c(OCC2CCN(CCF)C2)c1` (stereo not drawn) [Example 317, N-(4-fluoro-3-{[1-(2-fluoroethyl)pyrrolidin-3-yl]methoxy}phenyl)-3-methyl-5-{[5-(trifluoromethyl)pyrazin-2-yl]amino}-1,2-thiazole-4-carboxamide] are 450 nM and 610 nM.
The corresponding values for `Cc1nsc(Nc2cnc(C(F)(F)F)cn2)c1C(=O)Nc1ccc(F)c(OCC2CCN(C(CF)CF)C2)c1` (stereo not drawn) [Example 320, N-(3-{[1-(1,3-difluoropropan-2-yl)pyrrolidin-3-yl]methoxy}-4-fluorophenyl)-3-methyl-5-{[5-(trifluoromethyl)pyrazin-2-yl]amino}-1,2-thiazole-4-carboxamide] are 680 nM and 290 nM.
The corresponding values for `Cc1nsc(Nc2cnc(C(F)(F)F)cn2)c1C(=O)Nc1ccc(OCCNCCF)nc1` [Example 321, N-(6-{2-[(2-fluoroethyl)amino]ethoxy}pyridin-3-yl)-3-methyl-5-{[5-(trifluoromethyl)pyrazin-2-yl]amino}-1,2-thiazole-4-carboxamide] are 3400 nM and 1100 nM.
With `Cc1nsc(Nc2cnc(C(F)(F)F)cn2)c1C(=O)Nc1ccc(OCCNCC(F)(F)F)nc1` [Example 322, 3-methyl-N-(6-{2-[(2,2,2-trifluoroethyl)amino]ethoxy}pyridin-3-yl)-5-{[5-(trifluoromethyl)pyrazin-2-yl]amino}-1,2-thiazole-4-carboxamide], the IC50 in experiment [3] was 690 nM; in experiment [6] it was 150 nM.
